Data: patent US10028509B2 (priority 2012, dated 2018)
Where two headings read alike, the source gives them in different places.

Experiments:
Format in all cases: in vivo
[1] = test system: Phytophthora infestans; details: tomatoes, preventive spray, evaluated 3 days after inoculation
[2] = test system: Alternaria solani; experiment: Alternaria Test (Tomatoes)/Preventive; details: preventive spray, 100 ppm a.i., evaluated 3 days after inoculation
[3] = test system: Venturia inaequalis; experiment: Venturia Test (Apples)/Preventive; details: preventive spray, evaluated 10 days after inoculation

O=C(NCc1ncc(C(F)(F)F)cc1Cl)c1c(Cl)cccc1Cl [F143 fluopicolide, fluopicolide]
Efficacy in % found ([1]; Table A1, 5 ppm a.i.): 32%
Efficacy in % found [2]: 0%

N#Cc1c(Cl)c(Cl)c(Cl)c(C#N)c1Cl [F155 chlorothalonil, chlorothalonil]
Efficacy in % found ([3]; 10 ppm a.i.): 43%

propineb [F180 propineb]
Efficacy in % found ([1]; Table A2, 10 ppm a.i.): 23%

mancozeb [F174 mancozeb]
Efficacy in % found ([1]; Table A2, 10 ppm a.i.): 15%
Efficacy in % found ([3]; 20 ppm a.i.): 24%
